Assay results from US5760059A, “Indole derivatives” (Glaxo Wellcome SpA, priority 1993, dated 1998).
Where a name gives a salt, the structure may show the parent alone. Read-outs that look alike come from different tables or passages of the source.

Legend:
[1] = tested on: NMDA induced convulsions in mice; assay: inhibition of NMDA induced convulsions in mice; format: in vivo; settings: Mus musculus, dose to protect 50 % of the animals from NMDA (intracerebroventricular) convulsions
From the text: In this test the ability of the compound to inhibit the generalized seizures induced by an intracerebroventricular injection of NMDA in mice was examined at a number of dose levels. […] This expressed as mg/kg is referred to as the ED50 value.

[2] = biological target: T1, strychnine insensitive glycine binding site (NMDA receptor complex) (Rattus norvegicus, UniProt P35439); assay: affinity for strychnine insensitive glycine binding site
T1 construct: from tissue

anaesthetised cats = assay: adverse effects in anaesthetised cats; format: in vivo, cat; settings: doses up to 24 mg/kg
From the text: (§1) The compounds of the invention are essentially non toxic at therapeutically useful doses.

conscious dogs = assay: adverse effects in conscious dogs; format: in vivo, dog; settings: doses up to 24 mg/kg
From the text: as §1

[3] = intravenous, read-out: ED50 i.v
[4] = strychnine insensitive glycine binding site, read-out: pKi (converted)

Row | SMILES | Ki [2, 4] [nM] | also measured
1 | Nc1ccc(N2NC/C(=C\c3c(C(=O)O)[nH]c4cc(Cl)cc(Cl)c34)C2=O)cc1 [Example 10, (E) 4,6dichloro-3-[(5-oxo-1-(4-aminophenyl))pyrazolidin-4-ylidenemethyl]-1H-indole-2-carboxylic acid hydrochloride salt] | 14.8 | ED50 [1, 3]: 0.1 mg/kg; ED50 ([1]; oral, read-out: ED50 po): 1.7 mg/kg
2 | O=C([O-])c1[nH]c2cc(Cl)cc(Cl)c2c1/C=C1\CCN(c2ccccc2)C1=O.[Na+] [Example 3, (E)4,6-dichloro-3-(2oxo-1-phenyl-pyrrolidin-3-ylidenemethyl) -1H-indole-2-carboxylic acid sodium salt] |  | ED50 [1, 3]: 0.08 mg/kg; ED50 ([1]; oral, read-out: ED50 po): 3.83 mg/kg; Ki [2]: 51.3 nM
3 | CN1C/C(=C\c2c(C(=O)O)[nH]c3cc(Cl)cc(Cl)c23)C(=O)N1c1ccccc1 [Example 23, (E) 3[(2-methyl-5-oxo-1-phenyl)pyrazolidin-4-ylidenemethyl]-4,6-dichloro-1H-indole-2-carboxylic acid] | 34.7 | 
4 | CS(=O)(=O)Nc1ccc(N2NCC(=Cc3c(C(=O)O)[nH]c4cc(Cl)cc(Cl)c34)C2=O)cc1 [Example 22, 4,6Dichloro-3-[1-(4-methylsulfamidophenyl)-5-oxo-pyrazolidin4-ylidenemrthyl]-1H-indole-2-carboxylic acid] | 21.9 | 
5 | NC(=O)Nc1ccc(N2NCC(=Cc3c(C(=O)O)[nH]c4cc(Cl)cc(Cl)c34)C2=O)cc1 [Example 20, 4,6-Dichloro-3-[5-oxo-1-(4-ureido-phenyl)-pyrazolidin-4-ylidenemethyl]-1H-indole-2-carboxylic acid] | 20.4 | 
6 | Nc1cccc(N2NC/C(=C\c3c(C(=O)O)[nH]c4cc(Cl)cc(Cl)c34)C2=O)c1 [Example 27, (E) 4,6dichloro-3[(5-oxo-1-(3-aminophenyl))pyrazolidin-4-ylidenemethyl]-1H-indole-2-carboxylic acid hydrochloride salt] | 20 | 
7 | O=C(O)c1[nH]c2cc(Cl)cc(Cl)c2c1/C=C1\NC(=O)N(c2ccccc2)C1=O [Example 12, (Z) 4,6-Dichloro-3-(2,5dioxo-1-phenyl-imidazolidin-4-ylidenemethyl)-l H-indole-2-carboxylic acid] | 37.2 | 
8 | O=C(O)c1[nH]c2cc(Cl)cc(Cl)c2c1/C=C1\CNN(c2cccc3ccccc23)C1=O [Example 34, (E) 4,6-dichloro-3(5-oxo-1(1-naphthyl)-pyrazolidin-4-ylidenemethyl)-1H-indole-2-carboxylic acid] | 49 | 
9 | O=C(O)c1[nH]c2cc(Cl)cc(Cl)c2c1/C=C1\CNN(c2ccccc2)C1=O [Example 8, (E) 4,6-dichloro-3-(5oxy-1-phenyl-pyrazolidin-4ylidenemethyl)-1H-indole-2-carboxylic acid sodium salt] | 10 | adverse affects when administered (anaesthetised cats): no adverse affects; ED50 [1, 3]: 0.1 mg/kg; ED50 ([1]; oral, read-out: ED50 po): 1.7 mg/kg; adverse affects when administered (conscious dogs): no adverse affects
10 | O=C(O)c1[nH]c2cc(Cl)cc(Cl)c2c1/C=C1\CCCN(c2ccccc2)C1=O [Example 6, (E)4,6-dichloro-3-(2-oxo-1-phenyI-piperidin-3-ylidenemethyl)-1H-indole-2-carboxylic acid sodium salt] | 49 | ED50 [1, 3]: 0.09 mg/kg; ED50 ([1]; oral, read-out: ED50 po): 7.5 mg/kg
11 | O=C(O)c1[nH]c2cc(Cl)cc(Cl)c2c1/C=C1/NC(=O)N(c2ccccc2)C1=O [Example 14, (E) 4,6Dichloro-3-(2.5-dioxo-1-phenyl-imidazolidin-4-ylidenemethyl)-1H-indole-2-carboxylic acid] | 74.1 | 
12 | CC(=O)Nc1ccc(N2NCC(=Cc3c(C(=O)O)[nH]c4cc(Cl)cc(Cl)c34)C2=O)cc1 [Example 18, 4.6-Dichloro-3-[5-oxo1-(4-acetylamino-phenyl)-pyrazolidin-4-ylidenemethyl]-1H-indole-2-carboxylic acid] | 20 | 
13 | O=C(O)c1[nH]c2cc(Cl)cc(Cl)c2c1/C=C1\CC(=O)N(c2ccccc2)C1=O [Example 28, (E) 4,6dichloro-3-(2.5-dioxo-1-phenyl-pyrrolidin-3-ylidenemethyl)-1H-indole-2-carboxylic acid] | 41.7 | 
14 | O=C(O)c1[nH]c2cc(Cl)cc(Cl)c2c1C=C1CON(c2ccccc2)C1=O [Example 26, 4,6-Dichloro-3-(3-oxo-2-phenyl-isoxazolidin-4-ylidenemethyl)-1H-indole-2-carboxylic acid] | 75.9 | 
